Measured values taken from patent US20180099931A1 (AbbVie S.à.r.l., priority 2016, published 2018).
Where two headings read alike, the source gives them in different places.

Target: T1, F508delCFTR (Homo sapiens, UniProt P13569, DEL508-508)
T1 construct: expressed in transfected cells; host or cells: CFBE41o- human lung-derived epithelial cells (CFBE4lo-F508delCFTR-HRP), doxycycline-inducible
Assay: Cell Surface Expression-Horse Radish Peroxidase (CSE-HRP) Assay;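 as to Maximum % activity (with co-corrector): co-corrector and positive control are both the same reference corrector at 2 µM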;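 as to Maximum % activity (without co-corrector): percent of the 2 µM on-plate positive control corrector response above DMSO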
Assay type: cell-based
Conditions: for Maximum % activity (with co-corrector) / Emax: maximum at any tested concentration, normalized to on-plate positive control; for Emax: read-out: Maximum % activity (without co-corrector)

[1] = test compound without co-corrector, read-out: EC50 (without co-corrector)
[2] = with co-corrector (2 μM of 3-[(2R,4R)-4-({[1-(2,2-difluoro-1,3-benzodioxol-5-yl)cyclopropyl]carbonyl}amino)-7-methoxy-3,4-dihydro-2H-chromen-2-yl]benzoic acid), read-out: EC50 (with co-corrector)
[3] = CSE-HRP, test compound without co-corrector, read-out: EC50 (without co-corrector)
[4] = CSE-HRP, with co-corrector (2 μM of 3-[(2R,4R)-4-({[1-(2,2-difluoro-1,3-benzodioxol-5-yl)cyclopropyl]carbonyl}amino)-7-methoxy-3,4-dihydro-2H-chromen-2-yl]benzoic acid), read-out: EC50 (with co-corrector)
[5] = CSE-HRP, with co-corrector (2 μM)
[6] = test compound without co-corrector
[7] = with co-corrector (2 μM of 3-[(2R,4R)-4-({[1-(2,2-difluoro-1,3-benzodioxol-5-yl)cyclopropyl]carbonyl}amino)-7-methoxy-3,4-dihydro-2H-chromen-2-yl]benzoic acid)

T1 sequence (P13569 with tags, fused parts or gaps DEL508-508): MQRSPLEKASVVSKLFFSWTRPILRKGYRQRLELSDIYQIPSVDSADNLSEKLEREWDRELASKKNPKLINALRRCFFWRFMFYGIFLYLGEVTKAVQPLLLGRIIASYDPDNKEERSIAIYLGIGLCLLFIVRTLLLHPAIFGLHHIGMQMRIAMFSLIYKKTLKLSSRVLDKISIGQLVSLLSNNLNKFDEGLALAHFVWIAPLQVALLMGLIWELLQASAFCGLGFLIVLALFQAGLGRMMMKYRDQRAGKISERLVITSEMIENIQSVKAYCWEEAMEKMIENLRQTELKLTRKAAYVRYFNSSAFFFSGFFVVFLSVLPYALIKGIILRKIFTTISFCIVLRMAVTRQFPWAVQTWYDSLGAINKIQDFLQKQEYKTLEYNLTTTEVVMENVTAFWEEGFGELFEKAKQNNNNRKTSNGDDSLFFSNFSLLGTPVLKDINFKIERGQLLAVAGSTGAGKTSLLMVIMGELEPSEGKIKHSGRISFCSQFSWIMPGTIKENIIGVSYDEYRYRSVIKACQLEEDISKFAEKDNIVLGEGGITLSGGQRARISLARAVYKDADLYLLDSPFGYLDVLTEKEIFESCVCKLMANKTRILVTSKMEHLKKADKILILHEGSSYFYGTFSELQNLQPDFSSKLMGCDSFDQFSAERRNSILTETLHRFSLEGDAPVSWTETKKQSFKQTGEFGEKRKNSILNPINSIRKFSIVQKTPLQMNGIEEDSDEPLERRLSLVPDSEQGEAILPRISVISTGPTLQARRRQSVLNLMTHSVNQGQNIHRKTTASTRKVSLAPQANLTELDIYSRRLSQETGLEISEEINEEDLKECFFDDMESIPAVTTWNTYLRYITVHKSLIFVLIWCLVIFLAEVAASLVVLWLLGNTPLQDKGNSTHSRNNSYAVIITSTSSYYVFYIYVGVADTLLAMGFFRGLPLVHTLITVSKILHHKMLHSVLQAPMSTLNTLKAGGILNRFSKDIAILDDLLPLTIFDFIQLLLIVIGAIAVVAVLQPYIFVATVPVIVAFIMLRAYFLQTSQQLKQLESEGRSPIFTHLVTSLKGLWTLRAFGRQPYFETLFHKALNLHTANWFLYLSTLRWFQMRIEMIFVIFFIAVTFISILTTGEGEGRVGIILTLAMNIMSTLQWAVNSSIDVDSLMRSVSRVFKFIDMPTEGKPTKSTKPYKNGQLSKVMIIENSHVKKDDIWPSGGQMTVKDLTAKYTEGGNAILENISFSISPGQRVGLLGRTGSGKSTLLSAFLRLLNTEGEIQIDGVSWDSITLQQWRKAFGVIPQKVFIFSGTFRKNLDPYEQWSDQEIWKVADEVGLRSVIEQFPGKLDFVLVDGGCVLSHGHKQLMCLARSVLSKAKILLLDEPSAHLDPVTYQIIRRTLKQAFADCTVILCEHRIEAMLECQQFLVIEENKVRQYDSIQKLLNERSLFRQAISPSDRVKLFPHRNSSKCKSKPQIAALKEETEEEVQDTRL

Row | EC50 [1] | EC50 [2] | Maximum % activity (with co-corrector) (with co-corrector (2 μM)) | Emax (without co-corrector) | EC50 [3] | EC50 [4] | Maximum % activity (with co-corrector) [5] | Emax (CSE-HRP, without co-corrector) | Emax [6] | Maximum % activity (with co-corrector) (with co-corrector (2 μM of 3-[(2R,4R)-4-({[1-(2,2-difluoro-1,3-benzodioxol-5-yl)cyclopropyl]carbonyl}amino)-7-methoxy-3,4-dihydro-2H-chromen-2-yl]benzoic acid), 2 µM) | Maximum % activity (with co-corrector) [7] | Structure (SMILES)
1 |  |  |  |  | 1 to 10 µM | 1 to 10 µM | +++ (≥350) | > 200% |  |  |  | COc1ccc(C(C)(C)C)cc1CN[C@H]1[C@H](C(C)(C)C)[C@@H](C(=O)O)N(C(=O)[C@@H]2OCC[C@@H]2C)[C@H]1c1ccccc1 (relative stereo) [II-268]
2 | 1 to 10 µM | 1 to 10 µM |  |  |  |  |  |  | 100 to 200% | +++ (≥350) |  | COc1ccc(C(C)(C)C)cc1CN[C@H]1[C@H](C(C)(C)C)[C@@H](C(=O)O)N(C(=O)C2CCc3ccc(F)cc3O2)[C@H]1c1cccnc1N(C)C (single isomer, unassigned) [II-452]
3 |  |  |  |  | 1 to 10 µM | 1 to 10 µM | +++ (≥350) | > 200% |  |  |  | COc1ccc(C(C)(C)C)cc1CN[C@H]1[C@H](C(C)(C)C)[C@@H](C(=O)O)N(C(=O)CC2(O)CCCCC2)[C@H]1c1ccccc1 [II-210]
4 |  |  |  |  | < 1 µM | < 1 µM | +++ (≥350) | > 200% |  |  |  | COc1ccc(C(C)(C)C)cc1CN[C@H]1[C@H](C(C)(C)C)[C@@H](C(=O)O)N(C(=O)C(OC)c2cccc(Cl)c2)[C@H]1c1ccccc1 (single isomer, unassigned) [II-270]
5 | 1 to 10 µM | 1 to 10 µM | +++ (≥350) |  |  |  |  |  | > 200% |  |  | COc1cc2c(cc1CN[C@H]1[C@H](C(C)(C)C)[C@@H](C(=O)O)N(C(=O)OC(C)C)[C@H]1c1ccccc1)CCC2 [III-226]
6 | 1 to 10 µM | 1 to 10 µM | ++ (≥150 and <350) |  |  |  |  |  | < 100% |  |  | CC(C)(C)[C@H]1[C@H](Nc2ncccc2OCc2ccccc2)[C@H](c2ccccc2)N(C(=O)C2CCCCC2)[C@@H]1C(=O)O [III-160]
7 | 1 to 10 µM | < 1 µM |  |  |  |  |  |  | 100 to 200% |  | +++ (≥350) | COc1cc(C(F)(F)F)ccc1CN[C@@H]1[C@@H](C(C)(C)C)[C@H](C(=O)O)N(C(=O)C2CCCCC2)[C@@H]1c1ccccc1 (racemic) [III-35]
8 |  |  |  |  | 1 to 10 µM | 1 to 10 µM | ++ (≥150 and <350) | < 100% |  |  |  | COc1ccc(Cl)cc1CN[C@@H]1[C@@H](C(C)(C)C)[C@H](C(=O)O)N(C(=O)C2COCCO2)[C@@H]1c1ccccc1 (mixture of isomers) [II-86]
9 |  |  |  |  | 1 to 10 µM | 1 to 10 µM | ++ (≥150 and <350) | < 100% |  |  |  | COc1ccc(C(F)(F)F)cc1CN[C@@H]1[C@@H](C(C)(C)C)[C@H](C(=O)O)N(C(=O)C2COCCO2)[C@@H]1c1ccccc1 (mixture of isomers) [II-85]
10 |  |  |  |  | 1 to 10 µM | 1 to 10 µM | +++ (≥350) | > 200% |  |  |  | COc1ccc(C(F)(F)F)cc1CN[C@@H]1[C@@H](C(C)(C)C)[C@H](C(=O)O)N(C(=O)[C@H]2CCCO[C@H]2C)[C@@H]1c1ccccc1 (racemic) [II-35]
11 |  |  |  |  | < 1 µM | < 1 µM | +++ (≥350) | > 200% |  |  |  | COc1ccc(C2CCCCC2)cc1CN[C@H]1[C@H](C(C)(C)OC)[C@@H](C(=O)O)N(C(=O)C2CCCCC2)[C@H]1c1ccccc1 [II-257]
12 |  |  |  |  | < 1 µM | < 1 µM | +++ (≥350) | 100 to 200% |  |  |  | CC(C)c1ccccc1CN[C@H]1[C@H](C(C)(C)C)[C@@H](C(=O)O)N(C(=O)C2CCCCC2)[C@H]1c1ccccc1 [II-166]
13 | 1 to 10 µM | 1 to 10 µM |  |  |  |  |  |  | > 200% |  | +++ (≥350) | COc1ccc(C2(C)CCC2)cc1CN[C@H]1[C@H](C(C)(C)C)[C@@H](C(=O)O)N(C(=O)[C@H]2CCCCO2)[C@H]1c1cccnc1N(C)C [II-493]
14 |  |  |  |  | 1 to 10 µM | 1 to 10 µM | +++ (≥350) | 100 to 200% |  |  |  | COc1ccc(C)cc1CN[C@@H]1[C@@H](C(C)(C)C)[C@H](C(=O)O)N(C(=O)OC(C)C)[C@@H]1c1ccccc1 (racemic) [II-40]
15 | 1 to 10 µM | < 1 µM |  |  |  |  |  |  | 100 to 200% |  | +++ (≥350) | COc1cc(C(F)(F)F)ccc1CN[C@@H]1[C@@H](C(C)(C)C)[C@H](C(=O)O)N(C(=O)C2CCCCC2)[C@@H]1c1ccccc1OC (stereo in doubt) [III-40]
16 | 1 to 10 µM | 1 to 10 µM |  |  |  |  |  |  | < 100% |  | +++ (≥350) | COc1cnc(C2CCCCC2)cc1CN[C@H]1[C@H](C(C)(C)C)[C@@H](C(=O)O)N(C(=O)C2CCCCC2)[C@H]1c1ccccc1 [II-404]

Further lines, the molecule ahead of its results:

Row | Structure (SMILES) | EC50 [1] | EC50 [2] | Maximum % activity (with co-corrector) (with co-corrector (2 μM)) | Emax (without co-corrector) | EC50 [3] | EC50 [4] | Maximum % activity (with co-corrector) [5] | Emax (CSE-HRP, without co-corrector) | Emax [6] | Maximum % activity (with co-corrector) (with co-corrector (2 μM of 3-[(2R,4R)-4-({[1-(2,2-difluoro-1,3-benzodioxol-5-yl)cyclopropyl]carbonyl}amino)-7-methoxy-3,4-dihydro-2H-chromen-2-yl]benzoic acid), 2 µM) | Maximum % activity (with co-corrector) [7]
17 | Cc1cc(C(F)(F)F)cc(N[C@H]2[C@H](C(C)(C)C)[C@@H](C(=O)O)N(C(=O)C3CCCCC3)[C@H]2c2ccccc2)n1 [Example 4, (2S,3S,4S,5S)-3-tert-butyl-1-(cyclohexanecarbonyl)-4-{[6-methyl-4-(trifluoromethyl)pyridin-2-yl]amino}-5-phenylpyrrolidine-2-carboxylic acid] | 1 to 10 µM | 1 to 10 µM | +++ (≥350) | < 100% |  |  |  |  |  |  | 
18 | COc1ccc(C(C)(C)C)cc1CN[C@H]1[C@H](C(C)(C)C)[C@@H](C(=O)O)N(C(=O)C2CCCN(C)C2=O)[C@H]1c1ccccc1 (single isomer, unassigned) [Example I-191] | 1 to 10 µM | 1 to 10 µM | +++ (≥350) | > 200% |  |  |  |  |  |  | 
19 | COc1ccc(C(C)(C)C)cc1CN[C@H]1[C@H](C(C)(C)C)[C@@H](C(=O)O)N(C(=O)[C@@H]2CCCCO2)[C@H]1c1ccccc1Br [Example 113, (2S,3S,4S,5S)-5-(2-bromophenyl)-3-tert-butyl-4-{[(5-tert-butyl-2-methoxyphenyl)methyl]amino}-1-[(2S)-oxane-2-carbonyl]pyrrolidine-2-carboxylic acid] | 1 to 10 µM | < 1 µM | +++ (≥350) | > 200% |  |  |  |  |  |  | 
20 | COc1ccc(C(F)(F)F)cc1CN[C@H]1[C@H](C(C)(C)C)[C@@H](C(=O)O)N(C(=O)C2CCC(C(F)(F)F)C2)[C@H]1c1ccccc1 (some centres unmarked) [Example I-163] | 1 to 10 µM | 1 to 10 µM | +++ (≥350) | 100 to 200% |  |  |  |  |  |  | 
21 | COc1ccc(C(C)(C)C)cc1CN[C@H]1[C@H](C(C)(C)C)[C@@H](C(=O)O)N(C(=O)C2CCCCC2)[C@H]1c1cccnc1OC(F)F [Example I-225] | 1 to 10 µM | 1 to 10 µM | +++ (≥350) | 100 to 200% |  |  |  |  |  |  | 
22 | COc1nc(C(C)(C)C)ccc1CN[C@H]1[C@H](C(C)(C)C)[C@@H](C(=O)O)N(C(=O)C2CCCCC2)[C@H]1c1ccccc1 [Example 29, (2S,3S,4S,5S)-3-tert-butyl-4-{[(6-tert-butyl-2-methoxypyridin-3-yl)methyl]amino}-1-(cyclohexanecarbonyl)-5-phenylpyrrolidine-2-carboxylic acid] | < 1 µM | < 1 µM | +++ (≥350) | 100 to 200% |  |  |  |  |  |  | 
23 | COc1ccc(C(C)(C)C)cc1CN[C@H]1[C@H](C(C)(C)C)[C@@H](C(=O)O)N(C(=O)OCc2ccccc2Cl)[C@H]1c1ccccc1 [Example I-154] | < 1 µM | < 1 µM | +++ (≥350) | 100 to 200% |  |  |  |  |  |  | 
